Results published in PubChem BioAssay AID248 (DTP/NCI, 2004).
“And” between values parts separate entries of the source, which are not always exact repeats. Equal values may be shown once. Toxic doses and inconclusive results are not listed. No stated cut-off is given here; in the data, active means T/C of 150% or more; inactive means T/C below 125%.

Test system: L1210 leukemia ip in BDF1 mice, survival T/C
Assay: NCI In Vivo Anticancer Drug Screen. Data for tumor model L1210 Leukemia (intraperitoneal) in B6D2F1 (BDF1) mice
Conditions: endpoint: mean survival time, higher = longer survival
Summary of the method: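 Value reflects the ratio of survival in compound-treated mice to survival in vehicle-treated controls, with both groups carrying the same transplanted tumor.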

[1] = dose: 100.0 mg/kg/injection, schedule: Q01DX001 (ip), vehicle: carboxymethylcellulose (CMC)
[2] = dose: 200.0 mg/kg/injection, schedule: Q01DX001 (ip), vehicle: carboxymethylcellulose (CMC)
[3] = dose: 400.0 mg/kg/injection, schedule: Q01DX001 (ip), vehicle: carboxymethylcellulose (CMC)
[4] = dose: 50.0 mg/kg/injection, schedule: Q01DX009 (ip), vehicle: Klucel (hydroxypropylcellulose) (HPC)
[5] = dose: 100.0 mg/kg/injection, schedule: Q01DX009 (ip), vehicle: Klucel (hydroxypropylcellulose) (HPC)
[6] = dose: 100.0 mg/kg/injection, schedule: Q04DX002 (ip), vehicle: Klucel (hydroxypropylcellulose) (HPC)
[7] = dose: 200.0 mg/kg/injection, schedule: Q04DX002 (ip), vehicle: Klucel (hydroxypropylcellulose) (HPC)
[8] = dose: 400.0 mg/kg/injection, schedule: Q04DX002 (ip), vehicle: Klucel (hydroxypropylcellulose) (HPC)
[9] = dose: 12.5 mg/kg/injection, schedule: Q01DX009 (ip), vehicle: Klucel (hydroxypropylcellulose) (HPC)
[10] = dose: 25.0 mg/kg/injection, schedule: Q01DX009 (ip), vehicle: Klucel (hydroxypropylcellulose) (HPC)
[11] = dose: 100.0 mg/kg/injection, schedule: Q04DX003 (ip), vehicle: Klucel (hydroxypropylcellulose) (HPC)
[12] = dose: 200.0 mg/kg/injection, schedule: Q04DX003 (ip), vehicle: Klucel (hydroxypropylcellulose) (HPC)
[13] = dose: 400.0 mg/kg/injection, schedule: Q04DX003 (ip), vehicle: Klucel (hydroxypropylcellulose) (HPC)
[14] = dose: 200.0 mg/kg/injection, schedule: Q01DX009 (ip), vehicle: Klucel (hydroxypropylcellulose) (HPC)
[15] = dose: 100.0 mg/kg/injection, schedule: Q04DX003 (ip), vehicle: saline with Tween-80
[16] = dose: 200.0 mg/kg/injection, schedule: Q04DX003 (ip), vehicle: saline with Tween-80
[17] = dose: 400.0 mg/kg/injection, schedule: Q04DX003 (ip), vehicle: saline with Tween-80
[18] = dose: 100.0 mg/kg/injection, schedule: Q01DX001 (ip), vehicle: saline
[19] = dose: 200.0 mg/kg/injection, schedule: Q01DX001 (ip), vehicle: saline
[20] = dose: 100.0 mg/kg/injection, schedule: Q04DX002 (ip), vehicle: saline
[21] = dose: 200.0 mg/kg/injection, schedule: Q04DX002 (ip), vehicle: saline
[22] = dose: 400.0 mg/kg/injection, schedule: Q04DX002 (ip), vehicle: saline
[23] = dose: 100.0 mg/kg/injection, schedule: Q01DX001 (ip), vehicle: Klucel (hydroxypropylcellulose) (HPC)
[24] = dose: 200.0 mg/kg/injection, schedule: Q01DX001 (ip), vehicle: Klucel (hydroxypropylcellulose) (HPC)
[25] = dose: 400.0 mg/kg/injection, schedule: Q01DX001 (ip), vehicle: Klucel (hydroxypropylcellulose) (HPC)
[26] = dose: 400.0 mg/kg/injection, schedule: Q01DX009 (ip), vehicle: Klucel (hydroxypropylcellulose) (HPC)
[27] = dose: 50.0 mg/kg/injection, schedule: Q01DX001 (ip), vehicle: saline with Tween-80
[28] = dose: 100.0 mg/kg/injection, schedule: Q01DX001 (ip), vehicle: saline with Tween-80
[29] = dose: 200.0 mg/kg/injection, schedule: Q01DX001 (ip), vehicle: saline with Tween-80
[30] = dose: 100.0 mg/kg/injection, schedule: Q01DX009 (ip), vehicle: saline with Tween-80
[31] = dose: 200.0 mg/kg/injection, schedule: Q01DX009 (ip), vehicle: saline with Tween-80
[32] = dose: 400.0 mg/kg/injection, schedule: Q01DX009 (ip), vehicle: saline with Tween-80

Measured: T/C

CCC1CSC(=S)N1 (stereo unspecified)
inactive: dose: 3.12 mg/kg/injection, schedule: Q01DX009 (ip), vehicle: acetone 92 % of control | dose: 3.12 mg/kg/injection, schedule: Q04DX003 (ip), vehicle: saline 103 % of control | dose: 6.25 mg/kg/injection, schedule: Q01DX009 (ip), vehicle: acetone 102 % of control | dose: 6.25 mg/kg/injection, schedule: Q04DX003 (ip), vehicle: saline 101 % of control | dose: 12.5 mg/kg/injection, schedule: Q04DX003 (ip), vehicle: saline 102 % of control

c1csc(C2SC(c3cccs3)SC(c3cccs3)S2)c1 (stereo unspecified)
inactive: [1] 100 % of control | [2] 92 % of control | [3] 95 % of control

[Br][Sb]([Br])([c]1ccccc1)([c]1ccccc1)[c]1ccccc1
inactive: [4] 91 % of control | [5] 97 % of control | [6] 90 % of control | [7] 87 % of control

CNC(=S)N/N=C(\C=N\NC(=S)NC)c1ccc(OC)cc1
inactive: [6] 101 % of control | [7] 101 % of control | [8] 105 % of control

Oc1ccccc1C=Nc1cnc2ccccc2c1
inactive: [1] 95 % of control | [2] 98 % of control | [3] 95 % of control

CCOC1(OCC)C(C)C(c2ccccc2)C(c2ccccc2)C1C (stereo unspecified)
inactive: dose: 75.0 mg/kg/injection, schedule: Q01DX001 (ip), vehicle: saline 95 % of control | dose: 150.0 mg/kg/injection, schedule: Q01DX001 (ip), vehicle: saline 90 % of control | dose: 300.0 mg/kg/injection, schedule: Q01DX001 (ip), vehicle: saline 89 % of control

OCC1OC([Se])C(O)C(O)C1O.[CH3][Sb][CH3] (stereo unspecified)
inactive: dose: 3.13 mg/kg/injection, schedule: Q01DX009 (ip), vehicle: Klucel (hydroxypropylcellulose) (HPC) 99 % of control | dose: 6.25 mg/kg/injection, schedule: Q01DX009 (ip), vehicle: Klucel (hydroxypropylcellulose) (HPC) 96 % of control and 98 % of control | [9] 99 % of control and 104 % of control | [10] 91 % of control

O=C1c2ccccc2-c2ccc(-c3ccc4c5c(cccc35)C(=O)c3ccccc3-4)c3cccc1c23
inactive: [11] 89 % of control | [12] 95 % of control | [13] 89 % of control

COc1ccc(/C=C(\C(=O)O)c2cccc3ccccc23)cc1
inactive: [5] 91 % of control | [6] 100 % of control | [14] 107 % of control | [7] 86 % of control | [8] 104 % of control

COc1ccc(CC2=NNC(Cc3ccc(OC)c(OC)c3)=NN2)cc1OC
inactive: [15] 91 % of control | [16] 91 % of control | [17] 93 % of control

ClC(c1ccccc1)c1nc2ccccc2[nH]1 (stereo unspecified)
inactive: [18] 94 % of control | [19] 96 % of control

O=C(O)CCc1ccncc1
inactive: [20] 100 % of control | [21] 122 % of control | [22] 103 % of control

CC(C)Oc1ccc2c(c1)N(CCC1CCCCN1)c1ccccc1S2 (stereo unspecified)
inactive: [9] 101 % of control | [10] 103 % of control

N#CC(C#N)=Cc1cc(Cl)ccc1O
inactive: [18] 96 % of control | [19] 96 % of control

c1ccc2cc(C3SCCS3)ccc2c1
inactive: dose: 75.0 mg/kg/injection, schedule: Q04DX003 (ip), vehicle: Klucel (hydroxypropylcellulose) (HPC) 88 % of control | [23] 95 % of control | dose: 150.0 mg/kg/injection, schedule: Q04DX003 (ip), vehicle: Klucel (hydroxypropylcellulose) (HPC) 86 % of control | [24] 97 % of control | dose: 300.0 mg/kg/injection, schedule: Q04DX003 (ip), vehicle: Klucel (hydroxypropylcellulose) (HPC) 110 % of control | [25] 101 % of control

CCCCCCCCCCCCCCCCCC(=O)N/N=C/c1ccc(OCC)c(OC)c1
inactive: [5] 86 % of control | [14] 91 % of control | [26] 88 % of control

O=C1/C(=C\c2ccccc2)Cc2cc3c(cc21)OCO3
inactive: dose: 100.0 mg/kg/injection, schedule: Q04DX003 (ip), vehicle: saline 105 % of control | dose: 200.0 mg/kg/injection, schedule: Q04DX003 (ip), vehicle: saline 113 % of control | dose: 400.0 mg/kg/injection, schedule: Q04DX003 (ip), vehicle: saline 102 % of control

C/C(=N/NC(N)=O)C1CC2CCC1CC2 (stereo unspecified)
inactive: [4] 102 % of control | [5] 93 % of control | [14] 89 % of control

O/N=C\c1cc[n+](CC[n+]2ccc(/C=N/O)cc2)cc1
inactive: dose: 100.0 mg/kg/injection, schedule: Q04DX002 (ip), vehicle: other 112 % of control

COc1cccc(C(=O)c2cc(O)c3c(c2O)CC(C(C)=O)CC3=O)c1C#N (stereo unspecified)
inactive: [27] 100 % of control | [28] 94 % of control | [29] 98 % of control

CCCCCCCC/C=C\CCCCCCCCNP(=O)(OCCCCCCCCCCCC)OCCCCCCCCCCCC
inactive: dose: 100.0 mg/kg/injection, schedule: Q04DX002 (ip), vehicle: saline with Tween-80 101 % of control | dose: 400.0 mg/kg/injection, schedule: Q04DX002 (ip), vehicle: saline with Tween-80 86 % of control

CCOCCOCCOCCOc1ccc2c(c1)OCO2
inactive: [20] 95 % of control | [21] 88 % of control | [22] 107 % of control

Cc1ccc(-c2nnc3n2C(C)(C)N=C(N)N3)cc1
inactive: [15] 105 % of control | [16] 91 % of control | [17] 101 % of control

CCSC(C(O)C(O)C(O)CO)n1ccc(=O)[nH]c1=O (stereo unspecified)
inactive: dose: 100.0 mg/kg/injection, schedule: Q01DX005 (ip), vehicle: saline 97 % of control | dose: 200.0 mg/kg/injection, schedule: Q01DX005 (ip), vehicle: saline 93 % of control

Cc1cc(C(=O)CBr)c(CN2C(=O)c3ccccc3C2=O)c(=O)n1C
inactive: [28] 101 % of control

ClCc1ccc(CCl)c2ccccc12
inactive: [11] 104 % of control | [12] 105 % of control | [13] 100 % of control

COc1ccc(-c2sc(N)c(C#N)c2C)cc1OC
inactive: [28] 98 % of control | [15] 93 % of control and 97 % of control | [29] 93 % of control | [16] 95 % of control and 90 % of control | dose: 400.0 mg/kg/injection, schedule: Q01DX001 (ip), vehicle: saline with Tween-80 96 % of control | [17] 97 % of control and 102 % of control

O=C(O)C(=O)Cc1c(Cl)cccc1[N+](=O)[O-]
inactive: dose: 50.0 mg/kg/injection, schedule: Q01DX001 (ip), vehicle: saline 104 % of control | [18] 101 % of control | [19] 106 % of control | dose: 400.0 mg/kg/injection, schedule: Q01DX001 (ip), vehicle: saline 104 % of control

Cc1cc(C)cc(N=Cc2ccccc2)c1
inactive: [27] 98 % of control | [28] 98 % of control | [29] 95 % of control

O=C(Nc1cccc(Cl)c1)C(Br)C(Br)c1ccccc1 (stereo unspecified)
inactive: [5] 102 % of control | [14] 103 % of control | [26] 100 % of control

COc1ccc(C(=O)O)c(O)c1O
inactive: [30] 102 % of control | [31] 104 % of control | [32] 101 % of control

NC(=O)CNc1ccccc1C(=O)O
inactive: [23] 93 % of control | [24] 96 % of control | [25] 93 % of control

O=C1CN=C(c2ccccn2)c2cc(Cl)ccc2N1CCO
inactive: [30] 106 % of control | [15] 96 % of control | [31] 101 % of control | [16] 112 % of control | [32] 98 % of control | [17] 91 % of control
